Results on one compound are retold here after patent US20240374626A1, “METHODS OF ENHANCING MILK PRODUCTION IN LACTATING MAMMALIAN SUBJECTS” (priority 2023, published 2024).

Common to all, as to format: in vivo, mouse
Assay [1] concerns CK8+ luminal cells. In words: Contralateral intraductal injection: FACS DNA content analysis of CK8+ luminal cells. The conditions noted are these: Hydroxyurea IDI at PD8.5 and PD12.5 vs contralateral PBS, by LD5.
Assay [2] has as its system Wee1. In words: Contralateral intraductal injection: Wee1 expression in whole MG tissue by RT-qPCR. The conditions noted are these: IDI of hydroxyurea into pregnant MG vs contralateral PBS. As for the experimental part:
(§1) Nulliparous analysis was performed using adult (10-12-week-old) female mice. For timed pregnancies and lactation analysis, CD-1 pregnant adult females were obtained from Charles Rivers. Embryos were examined at the time of mammary gland harvesting to confirm pregnancy state. […] Plugged mice were considered to be PD0.5 on the day of the observed plug. All females used in this study were age matched.
(§2) Mice were anesthetized with isoflurane (VetOne, 501017) Prior to intraductal injections, hair was removed from around the nipples using Nair hair remover. Injections into the duct of the nipple were performed with 33 G needles (Hamilton, 7803-05) and a volume of 40 μl per gland. […]
For RNA isolation from FACS purified populations, mammary gland cell suspensions were blocked using Mouse BD Fc Block™ (BD Biosciences) for 10 min. […] Total RNA quality was analyzed by agarose gel electrophoresis and quantified using an ND-1000 spectrophotometer (NanoDrop). cDNA was prepared from 500-1000 ng of total RNA using iScript cDNA synthesis kit (Bio-Rad, 1708841). Quantitative RT-qPCR was performed in triplicates using SsoAdvanced Universal SYBR Green Supermix, (Bio-Rad, 1725272). […]

Assay [3] relates to γH2AX. In words: Contralateral intraductal injection: γH2AX IHC in CK8+ luminal cells of MG. The settings on record: Hydroxyurea IDI at PD8.5 and PD12.5 vs contralateral PBS, at PD13.5. Here is the method:
as §1
(§3) Mice were anesthetized with isoflurane (VetOne, 501017) Prior to intraductal injections, hair was removed from around the nipples using Nair hair remover. Injections into the duct of the nipple were performed with 33 G needles (Hamilton, 7803-05) and a volume of 40 μl per gland. Right inguinal, abdominal and thoracic glands were injected with doxorubicin (1.5 μg per gland, Cayman Chemical, 15007), nucleosides (40 μl per gland, Millipore-Sigma, ES-008-D) or Mk-1775 (50 μg per gland, Cayman Chemical, 21266), and left glands were injected with PBS or DMSO (Thermo Scientific, BP231) diluted in PBS.
(§4) Mammary gland tissue was fixed in 10% neutral buffered formalin (EMD Millipore, MR0458682) at 4° C. overnight. Fixation was quenched using 0.2% glycine (Fisher Scientific, BP381) in PBS, for 1 h at room temperature. […] Integrated density of nuclear γH2AX and pATR was quantified using ImageJ.

The subject of assay [4] is pATR. In words: Contralateral intraductal injection: pATR IHC in CK8+ luminal cells of MG. The conditions noted are these: Hydroxyurea IDI at PD8.5 and PD12.5 vs contralateral PBS, at PD13.5. Here is the method: as §1, §3, §4
The subject of assay [5] is MG alveoli. In words: Contralateral intraductal injection: milk staining (IHC) integrated density per alveolus. The settings on record: Hydroxyurea IDI at PD8.5 and PD12.5 vs contralateral PBS, LD2 MG section. As for the experimental part:
as §1, §2
Mammary gland tissue was fixed in 10% neutral buffered formalin (EMD Millipore, MR0458682) at 4° C. overnight. […] Incubation with secondary antibodies [(donkey anti-Rat 647 (Thermo-Invitrogen; A48272) and donkey anti-Rabbit 488 (Thermo-Invitrogen; A32790)] was performed for 2 h at room temperature. Sections were washed with 0.3% triton in PBS for 30 min (×3) at room temperature and mounted using flouromount-G (Southern Biotech, 0100-01). Image acquisition was performed using Zeiss Axio Imager Microscope. Macros were generated to quantify lumen milk integrated density per alveolus using Image J.

Assay [6] has as its system Csn2. In words: Contralateral intraductal injection: Csn2 expression in MGs by RT-qPCR. The conditions noted are these: Hydroxyurea IDI at PD8.5 and PD12.5 vs contralateral PBS, LD2 MGs. Here is the method: as §1, §3
For RNA isolation from FACS purified populations, mammary gland cell suspensions were blocked using Mouse BD Fc Block™ (BD Biosciences) for 10 min. Cells were subsequently resuspended on 1×PBS at a density of 10^7 cells/ml and stained with the following antibodies for 30 min on ice: anti-CD24 PE (Stem Cell Technologies, 60099PE.1), anti-CD29 PE-Cy7 (BioLegend, 102222), anti-CD45-APC (BioLegend,105826), Ter119-APC (BD Biosciences, 561033), CD31-ACP (BD Biosciences, 551262). Propidium iodide at a final concentration of 0.5 μg/ml was used for the discrimination of dead cells. Stromal, basal and luminal mammary populations were sorted using a BD FACS Aria II Cell Sorter. […] Total RNA quality was analyzed by agarose gel electrophoresis and quantified using an ND-1000 spectrophotometer (NanoDrop). cDNA was prepared from 500-1000 ng of total RNA using iScript cDNA synthesis kit (Bio-Rad, 1708841). Quantitative RT-qPCR was performed in triplicates using SsoAdvanced Universal SYBR Green Supermix, (Bio-Rad, 1725272). […]
A general note: Real-time PCR tracks product formation cycle by cycle.

Consider `NC(=O)NO` [Hydroxyurea], for which, in assay [1], the “decrease in 2C CK8+ population (in the overall population)” value was determined as 5.5%, the “increase in 4C CK8+ population (in the overall population)” value is 2% and the “increase in >4C CK8+ population (in the overall population)” value amounted to 48%. Moreover, in assay [2], the “Wee1 expression in whole MG tissue, RT-qPCR” value is recorded as “upregulated”. Also, the “γH2AX in CK8+ population” value in assay [3] was “increased”. Besides, the “pATR in CK8+ population” value in assay [4] is on record as “increased”. The “increase in milk (average integrated density of milk staining among alveoli)” value in assay [5] is recorded as about 15%. For the same compound, the “Csn2 expression, RT-qPCR” value in assay [6] is listed as “increase”.
